Earlier results, collected in US20250188545A1, “METHODS FOR PREDICTING RESPONSIVENESS OF LYMPHOMA TO DRUG AND METHODS FOR TREATING LYMPHOMA” (Celgene Corporation, priority 2022, published 2025).

System: high-risk ABC DLBCL population
Conditions: PHOENIX (ibrutinib), ROBUST (lenalidomide)

In the case of `Nc1cccc2c1CN(C1CCC(=O)NC1=O)C2=O` (stereo not shown) [lenalidomide], the “activity combined with R-CHOP compared to R-CHOP alone” value is given as “did not demonstrate greater activities”.
